{
  "source": "patent US20170159112A1",
  "about": "“AMPLIFIED ISOTHERMAL DETECTION OF POLYNUCLEOTIDES WITH ATP RELEASE” (priority 2015, published 2017)",
  "key": {"[1]": {"target": "T1, Klenow fragment exo− polymerase (Escherichia coli, UniProt P00582, D355A/E357A)", "T1 construct": "Klenow fragment of DNA polymerase I 3′-exonuclease deficient variant, Kf exo^−; purchased New England BioLabs", "T1 sequence (P00582 324-928 D355A/E357A)": "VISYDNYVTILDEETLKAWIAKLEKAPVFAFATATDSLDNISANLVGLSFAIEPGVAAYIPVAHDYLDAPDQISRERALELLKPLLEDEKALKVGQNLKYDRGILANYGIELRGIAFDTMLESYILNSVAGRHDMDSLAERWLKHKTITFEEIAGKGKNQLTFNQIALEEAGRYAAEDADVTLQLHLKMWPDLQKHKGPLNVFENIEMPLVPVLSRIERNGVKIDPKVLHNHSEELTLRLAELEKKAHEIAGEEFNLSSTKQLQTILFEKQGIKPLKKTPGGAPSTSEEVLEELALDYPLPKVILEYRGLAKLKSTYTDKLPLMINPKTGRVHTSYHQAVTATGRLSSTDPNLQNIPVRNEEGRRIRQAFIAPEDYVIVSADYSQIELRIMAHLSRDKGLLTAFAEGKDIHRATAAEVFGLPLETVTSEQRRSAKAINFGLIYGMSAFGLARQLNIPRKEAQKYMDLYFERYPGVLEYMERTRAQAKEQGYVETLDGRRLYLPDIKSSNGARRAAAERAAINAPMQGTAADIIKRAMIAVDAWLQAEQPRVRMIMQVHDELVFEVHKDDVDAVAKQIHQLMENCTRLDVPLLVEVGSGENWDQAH", "assay_type": "biochemical, E. coli", "settings": "Kf exo−; for Km / kcat: 37° C., single nucleotide incorporation, mean ± SD of three", "excerpt": "Next we performed experiments to quantify the efficiency of ARNs as DNA polymerase substrates. We used published analytical high-resolution gel-based methods to evaluate steady state kinetics of the four nucleotides as substrates during single nucleotide incorporation experiments, with Kf exo^−. We performed similar measurements with the natural dNTPs for comparison.\nSteady-State DNA Polymerase Efficiency with Chimeric ATP-Releasing Nucleotides, with Kf Exo^−.\nSteady-state kinetics measurements. Steady-state kinetics assays were performed following previously published procedures (Swanson et al. Biochemistry 2011, 50, 7666-7673). The 13mer primer (SEQ ID NO:13, 5′-[…]-3′) was end labeled with T4 polynucleotide kinase and [γ-^32P]-ATP following the manufacturer's protocol. The 20mer template ODNs (SEQ ID NO:14, 5′-[…]-3′, N=A, T, C, G) were annealed with 5′-^32P-labeled 13mer primer as described above. The annealed primer-template duplex (0.05 μM) was incubated with Klenow fragment exo^− polymerase at 37° C. for 5 min in the presence of individual dNTPs or chimeric ATP-linked nucleotides at varied concentrations.\nThe parameters were adjusted to result in extents of reaction of 20% or less to maintain initial velocity conditions. The reaction was terminated with an equal volume of formamide gel loading buffer (95% formamide, 20 mM EDTA, 0.05% xylene cyanol and bromophenol blue). Extension products were separated on 20% denaturing polyacrylamide gels containing 8 M urea. Gel band intensities of the primer and its extension products were quantified using a Typhoon 9410 Variable Mode Imager. Quantitative imaging of bands was carried out using Image J software to determine the fraction of primer extension. The velocity was plotted as a function of dNTP (or ARN) concentration and fit with the Michaelis-Menten equation to obtain the kinetic parameters, Vmax and Km. Reactions were performed three times and the mean (±standard deviation) of Vmax and Km are reported. The kcat values were calculated by dividing the Vmax with the concentration of polmerase used. The efficiency of nucleotide incorporation was calculated by the ratio Kcat/Km."}, "[2]": {"target": "T2, Kf (exo-) polymerase (Escherichia coli, UniProt P00582, D355A/E357A)", "T2 construct": "Klenow fragment of DNA polymerase I 3′-exonuclease deficient variant, Kf exo^−; purchased New England BioLabs", "T2 sequence (P00582 324-928 D355A/E357A)": "as above", "assay_type": "biochemical, E. coli", "settings": "for signal on the T20 template sequence (misincorporation of adenosine ribonucleotide moiety): 20 μM ARN, (T)20 template, Kf polymerase", "procedure": "polymerase. (A) Primer-template duplexes with (N)20 ends used in this study. (B) Luminescence signals resulting from the incorporation of ATP-linked nucleotides by Kf (exo.) polymerase. The Kf (exo.) polymerase reaction was carried out with 20 μM chimeric nucleotides and 1 μM corresponding primer template at 37° C. for 1 h. 5 μL of polymerase reaction solution were used for the luciferase reaction. […] (C) Kf (exo.) polymerase selectivity with chimeric nucleotides. The reaction was carried out using the (T)20 template and each of the four ARNs under the same reaction conditions as FIG. 2B.\nFIG. 5. Selectivity of chimeric nucleotides with Kf (exo-) polymerase. Each of the four chimeric ARNs was supplied with the polymerase and the annealed primer-template duplex immediately upstream of the sequence T20 (A), C20 (B), A20 (C), and G20 (D), respectively. The polymerase reaction contained: 20 μM chimeric nucleotide, 1 μM corresponding primer/template and 1 μL Kf (exo-) polymerase in manufacturer's polymerase reaction buffer. After 1 h incubation at 37° C., 5 μL reaction solutions were added to 95 μL luciferase reaction solution. The bioluminescence signal was recorded at 1 min intervals over 1 h by microplate fluorimeter.\nOur initial studies were directed at testing whether these modified nucleotides would be active as substrates for a DNA polymerase. We carried out experiments of primer extension on short synthetic primer/template duplexes (FIG. 2; 1 μM) in the presence of a standard polymerase (Klenow fragment of DNA polymerase I 3′-exonuclease deficient variant, Kf exo^−). We supplied one ARN at a time (20 μM) to its complementary template for one hour; if synthesis were successful it should generate up to ˜20 μM ATP as by-product of the reaction. We removed a small aliquot of the polymerase reaction and measured luminescence from this aliquot containing ATP in a commercial luciferase+luciferin reaction buffer over one hour (FIG. 2B). […] In this latter case we hypothesize the presence of intra- or inter-molecular G quadruplex structures that may inhibit the polymerase, possibly explaining the diminishment of ATP signal. In all four cases, signals were considerably (13-33-fold) higher than background in which primer/template DNA was omitted.\nNext we tested sequence selectivity of the chimeric nucleotides, evaluating sixteen combinations of ARNs with the four DNA sequences (FIG. 2C and FIG. 5). In all cases, the correct nucleotide/target sequence combinations yielded much higher signals than incorrect combinations, showing clear nucleotide/template base selectivity. […]\nPrimer extension and luciferase signaling with short linear test templates. […] The bioluminescence signal was recorded by microplate fluorometer (Fluoroskan Ascent, Thermal). […]"}},
  "data": [
    {"molecule": "Nc1ccn([C@H]2C[C@H](O)[C@@H](COP(=O)(O)OP(=O)(O)OP(=O)(O)OP(=O)(O)OC[C@H]3O[C@@H](n4cnc5c(N)ncnc54)[C@H](O)[C@@H]3O)O2)c(=O)n1", "note": "[dCppppA, Deoxycytidine-5′-tetraphosphate-P4-5′-Adenosine]", "values": [
      {"measurement": "Km", "setting": "[1]", "value": "3 ± 0.2", "unit": "µM"},
      {"measurement": "kcat", "setting": "[1]", "value": "0.215 ± 0.0017", "unit": "s⁻¹"},
      {"measurement": "signal on the T20 template sequence (misincorporation of adenosine ribonucleotide moiety)", "setting": "[2]", "value": "lack of enhanced signal"},
      {"measurement": "background signal in selectivity experiments", "setting": "[2]; sixteen combinations of ARNs with four DNA sequences", "value": "main background signal"}
    ]},
    {"molecule": "Cc1cn([C@H]2C[C@H](O)[C@@H](COP(=O)(O)OP(=O)(O)OP(=O)(O)O)O2)c(=O)[nH]c1=O", "note": "[dTTP, reference compound]", "values": [
      {"measurement": "Km", "setting": "[1]", "value": "0.24 ± 0.06", "unit": "µM"},
      {"measurement": "kcat", "setting": "[1]", "value": "0.145 ± 0.005", "unit": "s⁻¹"}
    ]},
    {"molecule": "Nc1ccn([C@H]2C[C@H](O)[C@@H](COP(=O)(O)OP(=O)(O)OP(=O)(O)O)O2)c(=O)n1", "note": "[dCTP, reference compound]", "values": [
      {"measurement": "Km", "setting": "[1]", "value": "0.07 ± 0.01", "unit": "µM"},
      {"measurement": "kcat", "setting": "[1]", "value": "0.233 ± 0.0067", "unit": "s⁻¹"}
    ]},
    {"molecule": "Nc1ncnc2c1ncn2[C@H]1C[C@H](O)[C@@H](COP(=O)(O)OP(=O)(O)OP(=O)(O)O)O1", "note": "[dATP, reference compound]", "values": [
      {"measurement": "Km", "setting": "[1]", "value": "0.35 ± 0.05", "unit": "µM"},
      {"measurement": "kcat", "setting": "[1]", "value": "0.143 ± 0.005", "unit": "s⁻¹"}
    ]},
    {"molecule": "Nc1ncnc2c1ncn2[C@@H]1O[C@H](COP(=O)(O)OP(=O)(O)OP(=O)(O)OP(=O)(O)OC[C@H]2O[C@@H](n3cnc4c(N)ncnc43)C[C@@H]2O)[C@@H](O)[C@H]1O", "note": "[dAppppA, Deoxyadenosine-5′-tetraphosphate-P4-5′-Adenosine]", "values": [
      {"measurement": "kcat/Km less than that of native congener dNTP", "setting": "[1]", "value": 5, "unit": "fold"},
      {"measurement": "Km", "setting": "[1]", "value": "1.3 ± 0.4", "unit": "µM"},
      {"measurement": "kcat", "setting": "[1]", "value": "0.118 ± 0.0033", "unit": "s⁻¹"}
    ]},
    {"molecule": "Nc1nc2c(ncn2[C@H]2C[C@H](O)[C@@H](COP(=O)(O)OP(=O)(O)OP(=O)(O)OP(=O)(O)OC[C@H]3O[C@@H](n4cnc5c(N)ncnc54)[C@H](O)[C@@H]3O)O2)c(=O)[nH]1", "note": "[dGppppA, Deoxyguanosine-5′-tetraphosphate-P4-5′-Adenosine]", "values": [
      {"measurement": "kcat/Km less than that of native congener dNTP", "setting": "[1]", "value": 70, "unit": "fold"},
      {"measurement": "Km", "setting": "[1]", "value": "3.5 ± 0.4", "unit": "µM"},
      {"measurement": "kcat", "setting": "[1]", "value": "0.118 ± 0.0083", "unit": "s⁻¹"},
      {"measurement": "signal on the T20 template sequence (misincorporation of adenosine ribonucleotide moiety)", "setting": "[2]", "value": "lack of enhanced signal"}
    ]},
    {"molecule": "Nc1nc2c(ncn2[C@H]2C[C@H](O)[C@@H](COP(=O)(O)OP(=O)(O)OP(=O)(O)O)O2)c(=O)[nH]1", "note": "[dGTP, reference compound]", "values": [
      {"measurement": "Km", "setting": "[1]", "value": "0.11 ± 0.01", "unit": "µM"},
      {"measurement": "kcat", "setting": "[1]", "value": "0.257 ± 0.0083", "unit": "s⁻¹"}
    ]},
    {"molecule": "Cc1cn([C@H]2C[C@H](O)[C@@H](COP(=O)(O)OP(=O)(O)OP(=O)(O)OP(=O)(O)OC[C@H]3O[C@@H](n4cnc5c(N)ncnc54)[C@H](O)[C@@H]3O)O2)c(=O)[nH]c1=O", "note": "[dTppppA, Thymidine-5′-tetraphosphate-P4-5′-Adenosine]", "values": [
      {"measurement": "Km", "setting": "[1]", "value": "2.2 ± 0.6", "unit": "µM"},
      {"measurement": "kcat", "setting": "[1]", "value": "0.0617 ± 0.0017", "unit": "s⁻¹"},
      {"measurement": "signal on the T20 template sequence (misincorporation of adenosine ribonucleotide moiety)", "setting": "[2]", "value": "lack of enhanced signal"}
    ]}
  ]
}
